Publication PMC3813382 (The Journal of General Physiology, 2013)
Numbering of substitutions follows the chain as printed.

Legend:
L209T Slo2.1 channels = molecular target: T1, L209T Slo2.1 channels (Homo sapiens, UniProt Q6UVM3, L209T); assay: Activation of ISlo2.1 by NFA, two-electrode voltage clamp in oocytes; type: cell-based
T1 sequence (Q6UVM3 1-1135 L209T): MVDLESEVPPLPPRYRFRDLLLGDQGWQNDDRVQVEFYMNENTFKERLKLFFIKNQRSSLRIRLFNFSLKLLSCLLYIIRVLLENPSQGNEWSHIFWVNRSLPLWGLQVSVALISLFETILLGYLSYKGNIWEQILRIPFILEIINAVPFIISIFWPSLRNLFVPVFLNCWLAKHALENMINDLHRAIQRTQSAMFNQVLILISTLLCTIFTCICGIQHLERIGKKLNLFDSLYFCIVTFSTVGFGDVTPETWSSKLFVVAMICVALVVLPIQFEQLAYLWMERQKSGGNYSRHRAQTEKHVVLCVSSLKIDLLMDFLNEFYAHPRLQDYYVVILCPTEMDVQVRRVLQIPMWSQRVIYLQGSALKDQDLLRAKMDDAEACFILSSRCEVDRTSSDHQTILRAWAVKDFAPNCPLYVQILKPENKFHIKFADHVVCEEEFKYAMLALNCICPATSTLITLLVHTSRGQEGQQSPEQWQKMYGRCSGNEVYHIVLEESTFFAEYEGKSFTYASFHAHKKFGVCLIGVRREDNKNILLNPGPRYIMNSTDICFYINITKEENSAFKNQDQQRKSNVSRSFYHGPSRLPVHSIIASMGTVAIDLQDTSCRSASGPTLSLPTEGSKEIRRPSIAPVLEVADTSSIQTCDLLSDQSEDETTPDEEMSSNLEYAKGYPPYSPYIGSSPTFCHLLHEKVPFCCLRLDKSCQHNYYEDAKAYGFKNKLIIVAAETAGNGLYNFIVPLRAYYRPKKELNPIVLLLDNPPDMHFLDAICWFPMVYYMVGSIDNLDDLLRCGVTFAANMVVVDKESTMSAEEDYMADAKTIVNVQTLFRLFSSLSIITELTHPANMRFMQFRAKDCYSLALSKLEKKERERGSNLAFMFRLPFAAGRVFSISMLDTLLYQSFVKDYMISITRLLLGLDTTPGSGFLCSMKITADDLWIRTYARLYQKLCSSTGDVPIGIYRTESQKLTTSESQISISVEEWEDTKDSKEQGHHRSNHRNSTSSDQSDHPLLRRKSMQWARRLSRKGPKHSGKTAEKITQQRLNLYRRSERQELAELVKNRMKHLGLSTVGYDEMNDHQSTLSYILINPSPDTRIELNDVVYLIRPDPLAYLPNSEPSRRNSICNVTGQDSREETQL

F240C Slo2.1 channels = molecular target: T2, F240C Slo2.1 channels (Homo sapiens, UniProt Q6UVM3, F240C); assay: as above; type: cell-based
T2 sequence (Q6UVM3 1-1135 F240C): T1 sequence (Q6UVM3 1-1135 L209T) with T209L, F240C

## O=C(O)c1cccnc1Nc1cccc(C(F)(F)F)c1 [NFA, niflumic acid]
L209T Slo2.1 channels
  EC50: 106 µM
L209T Slo2.1 channels; L209T
  Hill coefficient nH of NFA activation: 1.39 ± 0.12
L209T Slo2.1 channels; L209T vs WT
  NFA sensitivity of L209T relative to WT Slo2.1: 20 fold
F240C Slo2.1 channels; KCM211 solution ([K^+]e 2 mM)
  activation of F240C currents by NFA: not further activated by NFA
F240C Slo2.1 channels; [K^+]e elevated to 104 mM, 1 mM NFA
  activation of F240C currents by NFA: further activated by 1 mM NFA
